Results reported in ChEMBL document CHEMBL3046407, “Toxicity of monoterpenes against larvae and adults of Colorado potato beetle, Leptinotarsa decemlineata Say (Coleoptera: Chrysomelidae)” (2007).

Columns and labels:
Type in all cases: functional
[1] = tested on: Leptinotarsa decemlineata; test: Insecticidal activity against second-instar larval stage of Leptinotarsa decemlineata infested potato leaves assessed as mortality at 10 ul after 48 hr (reference value: […] +/- 3.3%)
[2] = tested on: Leptinotarsa decemlineata; test: Insecticidal activity against adult Leptinotarsa decemlineata infested potato leaves assessed as mortality at 20 ul after 96 hr relative to control
[3] = tested on: Leptinotarsa decemlineata; test: Insecticidal activity against third-instar larval stage of Leptinotarsa decemlineata infested potato leaves assessed as mortality at 10 ul after 24 hr relative to control
[4] = tested on: Leptinotarsa decemlineata; test: Insecticidal activity against adult Leptinotarsa decemlineata infested potato leaves assessed as mortality at 20 ul after 48 hr relative to control
[5] = tested on: Leptinotarsa decemlineata; test: Insecticidal activity against second-instar larval stage of Leptinotarsa decemlineata infested potato leaves assessed as mortality at 20 ul after 96 hr (reference value: […] +/- 3.3%)
[6] = tested on: Leptinotarsa decemlineata; test: Insecticidal activity against second-instar larval stage of Leptinotarsa decemlineata infested potato leaves assessed as mortality at 10 ul after 24 hr (reference value: […] +/- 3.3%)
[7] = tested on: Leptinotarsa decemlineata; test: Insecticidal activity against first-instar larval stage of Leptinotarsa decemlineata infested potato leaves assessed as mortality at 10 ul after 12 hr relative to control
[8] = tested on: Leptinotarsa decemlineata; test: Insecticidal activity against second-instar larval stage of Leptinotarsa decemlineata infested potato leaves assessed as mortality at 20 ul after 48 hr (reference value: […] +/- 3.3%)
[9] = tested on: Leptinotarsa decemlineata; test: Insecticidal activity against first-instar larval stage of Leptinotarsa decemlineata infested potato leaves assessed as mortality at 10 ul after 96 hr relative to control
[10] = tested on: Leptinotarsa decemlineata; test: Insecticidal activity against third-instar larval stage of Leptinotarsa decemlineata infested potato leaves assessed as mortality at 10 ul after 12 hr relative to control
[11] = tested on: Leptinotarsa decemlineata; test: Insecticidal activity against second-instar larval stage of Leptinotarsa decemlineata infested potato leaves assessed as mortality at 20 ul after 12 hr relative to control
[12] = tested on: Leptinotarsa decemlineata; test: Insecticidal activity against adult Leptinotarsa decemlineata infested potato leaves assessed as mortality at 10 ul after 12 hr relative to control
[13] = tested on: Leptinotarsa decemlineata; test: Insecticidal activity against second-instar larval stage of Leptinotarsa decemlineata infested potato leaves assessed as mortality at 10 ul after 12 hr relative to control
[14] = tested on: Leptinotarsa decemlineata; test: Insecticidal activity against second-instar larval stage of Leptinotarsa decemlineata infested potato leaves assessed as mortality at 20 ul after 24 hr (reference value: […] +/- 3.3%)
[15] = tested on: Leptinotarsa decemlineata; test: Insecticidal activity against adult Leptinotarsa decemlineata infested potato leaves assessed as mortality at 10 ul after 96 hr relative to control
[16] = tested on: Leptinotarsa decemlineata; test: Insecticidal activity against adult Leptinotarsa decemlineata infested potato leaves assessed as mortality at 10 ul after 48 hr relative to control
[17] = tested on: Leptinotarsa decemlineata; test: Insecticidal activity against first-instar larval stage of Leptinotarsa decemlineata infested potato leaves assessed as mortality at 20 ul after 48 hr relative to control
[18] = tested on: Leptinotarsa decemlineata; test: Insecticidal activity against adult Leptinotarsa decemlineata infested potato leaves assessed as mortality at 10 ul after 24 hr relative to control
[19] = tested on: Leptinotarsa decemlineata; test: Insecticidal activity against first-instar larval stage of Leptinotarsa decemlineata infested potato leaves assessed as mortality at 10 ul after 24 hr relative to control
[20] = tested on: Leptinotarsa decemlineata; test: Insecticidal activity against first-instar larval stage of Leptinotarsa decemlineata infested potato leaves assessed as mortality at 20 ul after 12 hr relative to control
[21] = tested on: Leptinotarsa decemlineata; test: Insecticidal activity against first-instar larval stage of Leptinotarsa decemlineata infested potato leaves assessed as mortality at 20 ul after 24 hr relative to control
[22] = tested on: Leptinotarsa decemlineata; test: Insecticidal activity against adult Leptinotarsa decemlineata infested potato leaves assessed as mortality at 20 ul after 12 hr relative to control
[23] = tested on: Leptinotarsa decemlineata; test: Insecticidal activity against first-instar larval stage of Leptinotarsa decemlineata infested potato leaves assessed as mortality at 10 ul after 48 hr relative to control
[24] = tested on: Leptinotarsa decemlineata; test: Insecticidal activity against first-instar larval stage of Leptinotarsa decemlineata infested potato leaves assessed as mortality at 20 ul after 96 hr relative to control
[25] = tested on: Leptinotarsa decemlineata; test: Insecticidal activity against third-instar larval stage of Leptinotarsa decemlineata infested potato leaves assessed as mortality at 10 ul after 96 hr (reference value: […] +/- 3.3%)
[26] = tested on: Leptinotarsa decemlineata; test: Insecticidal activity against third-instar larval stage of Leptinotarsa decemlineata infested potato leaves assessed as mortality at 20 ul after 24 hr relative to control
[27] = tested on: Leptinotarsa decemlineata; test: Insecticidal activity against third-instar larval stage of Leptinotarsa decemlineata infested potato leaves assessed as mortality at 20 ul after 96 hr (reference value: […] +/- 3.3%)
[28] = tested on: Leptinotarsa decemlineata; test: Insecticidal activity against third-instar larval stage of Leptinotarsa decemlineata infested potato leaves assessed as mortality at 10 ul after 48 hr (reference value: […] +/- 3.3%)
[29] = tested on: Leptinotarsa decemlineata; test: Insecticidal activity against second-instar larval stage of Leptinotarsa decemlineata infested potato leaves assessed as mortality at 10 ul after 96 hr (reference value: […] +/- 3.3%)
[30] = tested on: Leptinotarsa decemlineata; test: Insecticidal activity against third-instar larval stage of Leptinotarsa decemlineata infested potato leaves assessed as mortality at 20 ul after 48 hr (reference value: […] +/- 3.3%)
[31] = tested on: Leptinotarsa decemlineata; test: Insecticidal activity against third-instar larval stage of Leptinotarsa decemlineata infested potato leaves assessed as mortality at 20 ul after 12 hr relative to control
[32] = tested on: Leptinotarsa decemlineata; test: Insecticidal activity against adult Leptinotarsa decemlineata infested potato leaves assessed as mortality at 20 ul after 24 hr relative to control

SMILES	mortality [1] [%]	mortality [2] [%]	mortality [3] [%]	mortality [4] [%]	mortality [5] [%]	mortality [6] [%]	mortality [7] [%]	mortality [8] [%]	mortality [9] [%]	mortality [10] [%]	mortality [11] [%]	mortality [12] [%]	mortality [13] [%]	mortality [14] [%]	mortality [15] [%]	mortality [16] [%]	mortality [17] [%]	mortality [18] [%]	mortality [19] [%]	mortality [20] [%]	other results
CC(C)=CCC[C@@H](C)CC=O [CITRONELLAL]	76.7	86.7	20	80	93.3	53.3	6.7	93.3	86.7	20	23.3	6.7	20	80	100	100	90	90	43.3	33.3	mortality [21]: 76.7%; mortality [22]: 16.7%; mortality [23]: 76.7%; mortality [24]: 100%; mortality [25]: 26.7%; mortality [26]: 20%; mortality [27]: 33.3%; mortality [28]: 20%; mortality [29]: 80%; mortality [30]: 26.7%; mortality [31]: 10%
CC(C)=CCCC(C)CCO (stereo not given) [CITRONELLOL]	46.7	0	20	0	26.7	40	6.7	23.3	50	20	16.7	13.3	6.7	20	13.3	13.3	16.7	13.3	40	0	mortality [32]: 0%; mortality [21]: 3.3%; mortality [22]: 0%; mortality [23]: 46.7%; mortality [24]: 26.7%; mortality [25]: 26.7%; mortality [26]: 3.3%; mortality [27]: 16.7%; mortality [28]: 23.3%; mortality [29]: 50%; mortality [30]: 6.7%; mortality [31]: 3.3%
CC1=CCC2CC1C2(C)C (stereo not drawn) [ALPHA-PINENE]	63.3	100	3.3	100	86.7	50	26.7	80	66.7	3.3	20	100	26.7	70	100	100	56.7	100	50	13.3	mortality [32]: 100%; mortality [21]: 43.3%; mortality [22]: 96.7%; mortality [23]: 63.3%; mortality [24]: 66.7%; mortality [25]: 6.7%; mortality [26]: 16.7%; mortality [27]: 36.7%; mortality [29]: 66.7%; mortality [30]: 30%; mortality [31]: 13.3%
C=CC(C)(CCC=C(C)C)OC(C)=O (stereo not given) [LINALYL ACETATE]	80	70	30	63.3	93.3	36.7	16.7	93.3	86.7	23.3	30	0	20	63.3	23.3	16.7	93.3	0	30	26.7	mortality [32]: 23.3%; mortality [21]: 63.3%; mortality [22]: 10%; mortality [23]: 70%; mortality [24]: 69.3%; mortality [25]: 33.3%; mortality [26]: 73.3%; mortality [27]: 83.3%; mortality [29]: 86.7%; mortality [30]: 76.7%; mortality [31]: 30%
